Data: patent US20060173080A1, “Methods of modulating TNF using bupropion” (The Regents of the University of California, priority 2002, published 2006)
“Also recorded” adds a separate entry of the source. Counter-ions that a name gives are not always drawn.

Experiments:
CD patients [1] = conditions: Kast and Altschuler 2001; cited from earlier work
TNF = test: Serum TNF by ELISA in LPS-challenged mice; format: in vivo, BALB/c mice; conditions: bupropion 100 mg/kg i.p. 1 h before 600 μg LPS i.p., serum 90 min after LPS
Procedure: (§1) To study the immunomodulatory effects of bupropion we used a mouse model in which TNF production is induced by stimulation with lipopolysaccharide (LPS) (Bozza et al, The PACAP-type I receptor agonist maxadilan from sand fly saliva protects mice against lethal endotoxemia by a mechanism partially dependent on IL-10, Eur. J. Immunol. 28, 3120-3127, 1998). BALB/c mice were injected intraperitoneally (i.p.) with bupropion or placebo 1 h prior to i.p. injection of LPS (600 ug/mouse).
Male, 6 weeks old BALB/c mice were used in LPS-induced shock experiments. All mice were raised and maintained at the animal facilities at the Goncalo Moniz Research Center-FIOCRUZ, and provided with rodent diet and water ad libitum. Animal numbers in experimental groups were the minimum necessary to permit statistical analysis. All animals were sacrificed under anaesthesia.
Groups of mice were injected intraperitoneally (i.p.) with a dose of 600 μg of LPS (from Escherichia coli serotype 0111 :B4, Sigma, St. Louis, Mo., USA) in saline (previously determined as LD 100) 1 h after injection of placebo or bupropion. In some experiments, groups of mice received i.p. injection of propranolol (1 mg/Kg), SCH23390 (25 μg/kg) and sulpiride (25 mg/Kg) 1 h prior to injection of bupropion. […]. To determine serum TNF, IL-1 beta and IL-10 levels, mice were sacrificed 90 min after injection of LPS and bled by axilar vein puncture. Levels of IFN-gamma and nitric oxide were assayed using sera of mice sacrificed 4 h after LPS injection. Platelet and leukocyte cell counts were performed using blood collected with EDTA after 4 h of LPS challenge, using an automated cell counter (ADVIA 60, Bayer).
(§2) TNF, IL-1beta, IFN-gamma and IL-10 concentrations in serum samples or in supernatants from macrophage cultures were determined by enzyme-linked immunosorbent assay (ELISA) using antibody pairs and recombinant cytokines from R&D systems (Minneapolis, Minn., USA), according to the manufacturer's instructions. After incubation with streptoavidin-peroxidase conjugate (Sigma), the reaction was developed using 3,3′, 5,5′-tetramethylbenzidine (TMB) peroxidase substrate and read at 450 nm. The serum concentration of nitrite (NO2−) was determined by the Griess reaction, as an indicator of nitric oxide production (Green et al., Analysis of nitrate nitrite and [^15N] nitrite in biological fluids. Anal. Biochem 126, 131-138, 1982). […] The absorbance of the reaction product at 540 nm was measured using an ELISA reader. The NO2^− concentration was determined by using sodium nitrite as standard. Data were analyzed using Student's t test, one-way ANOVA or Newman-Keuls multiple comparison test, using Graph Pad Prism 3.0 software. […]

nitric oxide = test: Serum nitrite (Griess reaction) as indicator of nitric oxide production in LPS-challenged mice; format: in vivo, BALB/c mice; conditions: bupropion i.p. 1 h before 600 μg LPS
Procedure: as §1
Male, 6 weeks old BALB/c mice were used in LPS-induced shock experiments. […]
as §2, with “reader.” for “reader. The NO2^− concentration was determined by using sodium nitrite as standard. Data were analyzed using Student's t test, one-way ANOVA or Newman-Keuls multiple comparison test, using Graph Pad Prism 3.0 software.”

CD patients [2] = test: Case reports of Crohn's disease patients on bupropion (CDAI, symptoms, flares); format: in vivo, human
Excerpt: Also, multiple toxicity issues are associated with taking medicines such as azathioprine, methotrexate, and steroids over time (Sartor R B. New therapeutic approaches to Crohn;s disease. N Engl J Med 2000;342:1664-1666). In CD, TNF is increased, and TNF is thought to play a central role in CD pathogenesis (Papadakis K A, Targan S R. Role of cytokines in the pathogenesis of inflammatory bowel disease. Annu Rev Med 2000;51:289-298). Monoaminergic and dopaminergic treatments can lower levels of TNF-alpha via increased intracellular adenosine 3′,5′-cyclic monophosphate (cAMP).
person one presented in May of 1999 for treatment of an episode of major depression, superimposed on a chronic mild depressed state (dysthymia). […] They were not usually pain-free during the week, though usually did have several pain-free hours in a given day. […] Inadvertent loss of stool several times a month required daily use of adult protective pads. They were taking fluoxetine 40 mg every day for depression, and mesalamine 500 mg twice a day. CDAI was 202.
After careful review of treatment options, they were started on bupropion (fluoxetine was stopped) with up-titration to 150 mg twice a day. Their abdominal complaints eased over the next months, and the major depression remitted. The baseline dysthymia remained. To better treat the dysthymia, bupropion was raised to 150 mg three times daily with a further lowering of their CDAI. The mesalamine was tapered off. Their CDAI is currently approximately zero. They have one well-formed bowel movement daily and has been without abdominal symptoms or encopresis for 19 months now. They have had no CD flares since starting bupropion. Twice in the last year, they stopped bupropion on their own accord because they felt completely well and felt they didn't need bupropion anymore.
The above-described response to bupropion was consistent with other responses in CD patients. For example, a person with a 20-year history of Crohn's enteritis with multiple surgeries, including 4 small bowel resections. […] The patient was taking fluoxetine to help with pain control. […] Even though they were not able to stop smoking, the patient felt better on bupropion so they decided to continue this medicine with their family doctor's consent. Currently, the patient is taking bupropion 150 mg three times daily. […] Under their doctor's supervision, they have recently tapered their azathioprine from 100 to 50 mg every day without any increase in CDAI.

CC(NC(C)(C)C)C(=O)c1cccc(Cl)c1 (racemic) [bupropion, (.±.)-1-(3-chlorophenyl)-2-[(1,1-dimethylethyl)amino]-1-propanone hydrochloride]
clinical remission of CD (published cases) (CD patients [1]): clinical remission | serum TNF level compared with placebo (TNF; listed as bupropion hydrochloride): decrease | serum TNF level compared with placebo (TNF; hydrochloride): lowers; also recorded: significantly reduced | serum TNF level compared with placebo (TNF; listed as Bupropion, hydrochloride): significantly decreased | serum TNF level compared with placebo (TNF; listed as buproprion, hydrochloride): decreased | nitric oxide level compared with placebo (nitric oxide): decreased with a trend toward significance | production of nitric oxide, reduction compared to placebo treated mice (nitric oxide; serum 4 h after LPS): about four-fold | CD flares since starting bupropion (CD patients [2]; case patients, hydrochloride): no CD flares; also recorded: no CD flares or associated surgeries | time without abdominal symptoms or encopresis (CD patients [2]; person one on bupropion): 19 months | CDAI (CD patients [2]; person one, colonic CD, bupropion 150 mg three times daily, CDAI 202 before bupropion): approximately zero | abdominal cramping and blood per rectum after restarting bupropion (CD patients [2]; person one, symptoms recurred on two self-chosen stops): remitted within weeks | CDAI (CD patients [2]; person, Crohn's enteritis, bupropion 150 mg three times daily, CDAI approximately 275 before): about 45 | Crohn's symptoms (CD patients [2]; person, bupropion 150 mg three times daily): alleviated completely | side effects or toxicities (CD patients [2]; two CD cases, over 2 years): without significant side effects or toxicities | remission of CD (CD patients [2]; two cases): near complete and long-lasting (over 2 years) remissions
